Results from US4943562A, “Tetra- and pentapeptides containing the lysyl-arginyl-aspartyl sequence and their applications as medicines, particularly anti-thrombotic medicines” (Institut des Vaisseaux et du Sang, priority 1987, dated 1990).
Peptide text beside a SMILES is read from it.

Legend:
[1] = test system: intravascular thrombus; assay: experimental thrombosis: intravascular thrombus induced by a specific lesion of the arterial wall, guineapig; format: in vivo; conditions: direct intravenous injection
Description: Experimental work on thrombosis carried out on two different animal species (rat and guineapig) have shown that the peptides according to the invention, in particular the peptides of the general formula […] (II), viz. particularly peptide […] (peptide 1) and peptide […] […] The type of thrombus which is thus induced takes into account the participation of the blood platelets against which the peptide exerts its activity but also the reactivity of the injured vascular wall.

[2] = test system: intravascular thrombus; assay: experimental thrombosis: intravascular thrombus induced by a specific lesion of the arterial wall, rat; format: in vivo; conditions: direct intravenous injection
Description: Experimental work on thrombosis carried out on two different animal species (rat and guineapig) have shown that the peptides according to the invention, in particular the peptides of the general formula […] (II), viz. particularly peptide […] (peptide 1) and peptide […] The type of thrombus which is thus induced takes into account the participation of the blood platelets against which the peptide exerts its activity but also the reactivity of the injured vascular wall. […] In the same experimental thrombosis system, when a peptide according to the invention is used, particularly a peptide of the formula […]

[3] = water-solubility of the peptide; format: physicochemical
Source text: This peptide is hydrophilic and its water-solubility is very good.

Row | water-solubility [3] | Compound | anti-thrombotic activity [1] | anti-thrombotic activity [2]
1 |  | N=C(N)NCCC[C@H](NC(=O)[C@H](CC(=O)O)NC(=O)[C@H](CCCNC(=N)N)NC(=O)[C@@H](N)CCCCN)C(=O)O [peptide 6, Lys-Arg-Asp-Arg] (H-KRDR-OH) | exert an anti-thrombotic activity | exert an anti-thrombotic activity
2 | very good | N=C(N)NCCC[C@H](NC(=O)[C@@H](N)CCCCN)C(=O)N[C@@H](CC(=O)O)C(=O)N[C@@H](CO)C(=O)O [peptide 1, Lys-Arg-Asp-Ser] (H-KRDS-OH) |  | 
